This assay has as its system A. flavus ATCC 64025. In words: Checkerboard MIC assay, FICI. Format: cell-based, Aspergillus flavus. The conditions noted are these: combination with Compound 1. An excerpt: The following assay was used to determine the minimum inhibitory concentration (MIC) and fractional inhibitory concentration index (FICI) for combinations of an antifungal agent and a glycopeptide antibacterial agent. This assay and methods for calculating FICI are well known in the art. See, for example, Eliopoulos, E. G. and R. Moellering, Jr. “Antimicrobial Combinations” in Antibiotics in Laboratory Medicine, edited by V. Lorian, 4th Ed., Williams & Wilkins, Baltimore, MD, pp. 330-396 (1996); […] et al., Antimicrobial Agents and Chemotherapy 47(4):1416-1418 (2003); or […] et al., Antimicrobial Agents and Chemotherapy 46(10):3323-3326 (2002). […] The MIC of the glycopeptide antibacterial agent determined from this experiment was used in FIC calculations. […]

SMILES strings stand for the structures.

As to `C[C@@H]1[C@H](O)[C@@H](C)/C=C/C=C/C=C/C=C/C=C/C=C/C=C/[C@H](O[C@@H]2O[C@H](C)[C@@H](O)[C@H](N)[C@@H]2O)C[C@@H]2O[C@](O)(C[C@@H](O)C[C@@H](O)[C@H](O)CC[C@@H](O)C[C@@H](O)CC(=O)O[C@H]1C)C[C@H](O)[C@H]2C(=O)O` [Amphotericin B], the FICI is on record as 0.51. For the compound `C[C@@H]1[C@H](O)[C@@H](C)/C=C/C=C/CC/C=C/C=C/C=C/C=C/C(O[C@H]2O[C@H](C)[C@@H](O)[C@H](N)[C@@H]2O)CC2O[C@](O)(CC(O)C(O)CCC(O)CC(O)CC(O)CC(=O)O[C@H]1C)CC(O)C2C(=O)O` (some centres unmarked) [Nystatin], the FICI was 0.51.

(Values after patent US7521418B2, “Use of a polyene macrolide antifungal agent in combination with a glycopeptide antibacterial agent” (Theravance, Inc., priority 2003, dated 2009).)
